# Data as given in patent US10722516B2, “Use of landiolol hydrochloride in the long-term treatment of tachyarrhythmias” (AOP Orphan Pharmaceuticals AG, priority 2013, dated 2020).
# Where a name gives a salt, the structure may show the parent alone.
# Test system: healthy volunteers
# Assay: 24 h long-term infusion study, AOP LDLL600 against esmolol: heart rate
# Assay type: in vivo, human
# Experimental: A single centre prospective, randomized, double blind, crossover, pharmacokinetic, safety and tolerability study to compare long-term infusion administration of AOP LDLL600 against esmolol in healthy volunteers was performed.
# Landiolol hydrochloride lyophilized (LDLL600) comprises 600 mg landiolol hydrochloride, 600 mg mannitol, pH 6.5. The primary packing of LDLL600 is 50 ml vial, the reconstitution volume is 50 ml and the final product concentration is 12 mg/mL landiolol HCl.
# 12 subjects were administered AOP LDLL600 or Esmolol (Brevibloc, 2500 mg/250 ml) in 1:1 ratio in double-blind, randomized, cross-over setting. PK, systemic cardiovascular and local tolerability and safety of the 24 h-long term infusions of three dose levels of both IMPs during each treatment period were assessed.
# Landiolol was infused over 24 h in a dose of 10 μg/KG/min (2 hrs), followed by 20 μg/KG/min (2 hrs), followed by 40 μg/KG/min for 20 hrs.
# Dosing algorithm was body weight divided by 20, 10 and 5 in ml/h giving 10, 20 and 40 μg/KG/min at a concentration of 12 mg/ml. No severe adverse drug reactions, mild local reactions, 1 severe local reaction (Esmolol High Dose).
# Landiolol was infused over 24 h in a dose of 10, 20 and 40 μg/KG/min, i.e. 10 μg/KG/min landiolol were administered for 2 hrs, followed by 2 hrs administration of 20 μg/KG/min and further followed by 20 hrs administration of 40 μg/KG/min.
# Post-infusion follow up measurements were performed immediately after 20 hrs administration study, i.e. 2, 4 min etc. after stop of landiolol administration.
# [1] = FU Predose (end of 20 h HD, infusion stop)
# [2] = FU post-infusion, 20 h 2 min (2 min after infusion stop)
# [3] = FU post-infusion, 20 h 4 min (4 min after infusion stop)
# [4] = FU post-infusion, 20 h 6 min (6 min after infusion stop)
# [5] = FU post-infusion, 20 h 8 min (8 min after infusion stop)
# [6] = FU post-infusion, 20 h 12 min (12 min after infusion stop)
# [7] = FU post-infusion, 20 h 16 min (16 min after infusion stop)
# [8] = FU post-infusion, 20 h 20 min (20 min after infusion stop)
# [9] = FU post-infusion, 20 h 30 min (30 min after infusion stop)
# [10] = FU post-infusion, 21 h (1 h after infusion stop)
# [11] = FU post-infusion, 22 h (2 h after infusion stop)
# [12] = FU post-infusion, 24 h (4 h after infusion stop)
# [13] = FU post-infusion, 26 h (6 h after infusion stop)
# [14] = HD infusion (landiolol 40, esmolol 200 μg/kg/min, after LD and MD), 2 min
# [15] = HD infusion (landiolol 40, esmolol 200 μg/kg/min, after LD and MD), 3 min
# [16] = HD infusion (landiolol 40, esmolol 200 μg/kg/min, after LD and MD), 4 min
# [17] = HD infusion (landiolol 40, esmolol 200 μg/kg/min, after LD and MD), 6 min
# [18] = HD infusion (landiolol 40, esmolol 200 μg/kg/min, after LD and MD), 8 min
# [19] = HD infusion (landiolol 40, esmolol 200 μg/kg/min, after LD and MD), 12 min
# [20] = HD infusion (landiolol 40, esmolol 200 μg/kg/min, after LD and MD), 16 min
# [21] = HD infusion (landiolol 40, esmolol 200 μg/kg/min, after LD and MD), 20 min
# [22] = HD infusion (landiolol 40, esmolol 200 μg/kg/min, after LD and MD), 30 min
# [23] = HD infusion (landiolol 40, esmolol 200 μg/kg/min, after LD and MD), 60 min
# [24] = HD infusion (landiolol 40, esmolol 200 μg/kg/min, after LD and MD), 90 min
# [25] = HD infusion (landiolol 40, esmolol 200 μg/kg/min, after LD and MD), 2 h
# [26] = HD infusion (landiolol 40, esmolol 200 μg/kg/min, after LD and MD), 4 h
# [27] = HD infusion (landiolol 40, esmolol 200 μg/kg/min, after LD and MD), 8 h
# [28] = HD infusion (landiolol 40, esmolol 200 μg/kg/min, after LD and MD), 12 h
# [29] = HD infusion (landiolol 40, esmolol 200 μg/kg/min, after LD and MD), 16 h
# [30] = HD infusion (landiolol 40, esmolol 200 μg/kg/min, after LD and MD), 20 h (end)
# [31] = LD infusion (landiolol 10, esmolol 50 μg/kg/min), 2 min
# [32] = LD infusion (landiolol 10, esmolol 50 μg/kg/min), 3 min
structure (smiles),measurement,setting,value
"CC1(C)OC[C@@H](COC(=O)CCc2ccc(OC[C@@H](O)CNCCNC(=O)N3CCOCC3)cc2)O1 [Landiolol, (−)-[(S)-2,2-dimethyl-1,3-dioxolan-4-yl]methyl 3-[4-[(S)-2-hydroxy-3-(2-morpholinocarbonylamino)ethylamino]propoxy]phenylpropionate monohydrochloride]","change of heart rate from predose, Mean (SD)",[1],−5.7 (11.51) beats per minute
same,"heart rate, Mean (SD)",[1],61.7 (5.87) beats per minute
same,"change of heart rate from predose, Mean (SD)",[2],−6.8 (11.98) beats per minute
same,"heart rate, Mean (SD)",[2],60.6 (5.50) beats per minute
same,"change of heart rate from predose, Mean (SD)",[3],−6.5 (9.88) beats per minute
same,"heart rate, Mean (SD)",[3],60.8 (4.04) beats per minute
same,"change of heart rate from predose, Mean (SD)",[4],−5.9 (9.79) beats per minute
same,"heart rate, Mean (SD)",[4],61.4 (5.43) beats per minute
same,"change of heart rate from predose, Mean (SD)",[5],−5.7 (10.63) beats per minute
same,"heart rate, Mean (SD)",[5],61.7 (5.33) beats per minute
same,"change of heart rate from predose, Mean (SD)",[6],−3.8 (10.00) beats per minute
same,"heart rate, Mean (SD)",[6],63.5 (6.11) beats per minute
same,"change of heart rate from predose, Mean (SD)",[7],−0.3 (14.69) beats per minute
same,"heart rate, Mean (SD)",[7],67.0 (8.92) beats per minute
same,"change of heart rate from predose, Mean (SD)",[8],−0.3 (11.89) beats per minute
same,"heart rate, Mean (SD)",[8],67.0 (8.29) beats per minute
same,"change of heart rate from predose, Mean (SD)",[9],2.7 (9.47) beats per minute
same,"heart rate, Mean (SD)",[9],70.0 (5.70) beats per minute
same,"change of heart rate from predose, Mean (SD)",[10],1.8 (12.70) beats per minute
same,"heart rate, Mean (SD)",[10],69.2 (9.64) beats per minute
same,"change of heart rate from predose, Mean (SD)",[11],−0.5 (9.97) beats per minute
same,"heart rate, Mean (SD)",[11],66.8 (8.43) beats per minute
same,"change of heart rate from predose, Mean (SD)",[12],4.2 (10.34) beats per minute
same,"heart rate, Mean (SD)",[12],71.5 (4.96) beats per minute
same,"change of heart rate from predose, Mean (SD)",[13],5.3 (9.97) beats per minute
same,"heart rate, Mean (SD)",[13],72.6 (5.26) beats per minute
same,"change of heart rate from predose, Mean (SD)",HD Predose (end of 2 h MD),−11.3 (9.41) beats per minute
same,"heart rate, Mean (SD)",HD Predose (end of 2 h MD),56.1 (7.38) beats per minute
same,"change of heart rate from predose, Mean (SD)",[14],−9.6 (8.69) beats per minute
same,"heart rate, Mean (SD)",[14],57.8 (5.43) beats per minute
same,"change of heart rate from predose, Mean (SD)",[15],−9.9 (9.92) beats per minute
same,"heart rate, Mean (SD)",[15],57.4 (6.40) beats per minute
same,"change of heart rate from predose, Mean (SD)",[16],−12.6 (9.52) beats per minute
same,"heart rate, Mean (SD)",[16],54.8 (5.45) beats per minute
same,"change of heart rate from predose, Mean (SD)",[17],−9.7 (11.01) beats per minute
same,"heart rate, Mean (SD)",[17],57.7 (7.38) beats per minute
same,"change of heart rate from predose, Mean (SD)",[18],−10.7 (10.76) beats per minute
same,"heart rate, Mean (SD)",[18],56.7 (6.62) beats per minute
same,"change of heart rate from predose, Mean (SD)",[19],−9.4 (12.21) beats per minute
same,"heart rate, Mean (SD)",[19],57.9 (8.13) beats per minute
same,"change of heart rate from predose, Mean (SD)",[20],−11.3 (10.71) beats per minute
same,"heart rate, Mean (SD)",[20],56.0 (6.80) beats per minute
same,"change of heart rate from predose, Mean (SD)",[21],−11.4 (9.74) beats per minute
same,"heart rate, Mean (SD)",[21],55.9 (6.35) beats per minute
same,"change of heart rate from predose, Mean (SD)",[22],−10.5 (10.30) beats per minute
same,"heart rate, Mean (SD)",[22],56.8 (7.23) beats per minute
same,"change of heart rate from predose, Mean (SD)",[23],−5.4 (13.14) beats per minute
same,"heart rate, Mean (SD)",[23],61.9 (8.93) beats per minute
same,"change of heart rate from predose, Mean (SD)",[24],−4.8 (11.24) beats per minute
same,"heart rate, Mean (SD)",[24],62.5 (5.95) beats per minute
same,"change of heart rate from predose, Mean (SD)",[25],−3.0 (9.59) beats per minute
same,"heart rate, Mean (SD)",[25],64.3 (5.25) beats per minute
same,"change of heart rate from predose, Mean (SD)",[26],−6.9 (11.24) beats per minute
same,"heart rate, Mean (SD)",[26],60.4 (5.25) beats per minute
same,"change of heart rate from predose, Mean (SD)",[27],−9.8 (10.39) beats per minute
same,"heart rate, Mean (SD)",[27],57.5 (5.96) beats per minute
same,"change of heart rate from predose, Mean (SD)",[28],−10.8 (10.17) beats per minute
same,"heart rate, Mean (SD)",[28],56.5 (6.08) beats per minute
same,"change of heart rate from predose, Mean (SD)",[29],−13.8 (10.01) beats per minute
same,"heart rate, Mean (SD)",[29],53.6 (4.89) beats per minute
same,"change of heart rate from predose, Mean (SD)",[30],−5.7 (11.51) beats per minute
same,"heart rate, Mean (SD)",[30],61.7 (5.87) beats per minute
same,"change of heart rate from predose, Mean (SD)",[31],−1.8 (7.77) beats per minute
same,"heart rate, Mean (SD)",[31],65.6 (5.09) beats per minute
same,"change of heart rate from predose, Mean (SD)",[32],−2.5 (7.48) beats per minute
same,"heart rate, Mean (SD)",[32],64.8 (6.82) beats per minute
same,"change of heart rate from predose, Mean (SD)","LD infusion (landiolol 10, esmolol 50 μg/kg/min), 4 min",−2.8 (6.38) beats per minute
